Results taken from patent publication US12583854B2, “KRAS G12C inhibitors and methods of using the same” (Amgen Inc., priority 2018, dated 2026).

Molecular target: GDP-bound KRAS protein (aa 1-169), containing both G12C and C118A amino acid substitutions (Homo sapiens, UniProt P01116, C118A/G12C)
Assay: Coupled Nucleotide Exchange Assay
Format: biochemical
Conditions: 5 min compound pre-incubation; SOS-mediated nucleotide exchange, AlphaScreen
Method: Following compound pre-incubation, purified SOS protein (aa 564-1049) and GTP (Roche 10106399001) were added to the assay wells and incubated for an additional 30 min. To determine the extent of inhibition of SOS-mediated nucleotide exchange, purified GST-tagged cRAF (aa 1-149), nickel chelate AlphaLISA acceptor beads (PerkinElmer AL108R), and AlphaScreen glutathione donor beads (PerkinElmer 6765302) were added to the assay wells and incubated for 10 minutes. The assay plates were then read on a PerkinElmer EnVision Multilabel Reader, using AlphaScreen® technology, and data were analyzed using a 4-parameter logistic model to calculate IC50 values.

GDP-bound KRAS protein (aa 1-169), containing both G12C and C118A amino acid substitutions, sequence (P01116 1-169 isoform P01116-2 G12C/C118A): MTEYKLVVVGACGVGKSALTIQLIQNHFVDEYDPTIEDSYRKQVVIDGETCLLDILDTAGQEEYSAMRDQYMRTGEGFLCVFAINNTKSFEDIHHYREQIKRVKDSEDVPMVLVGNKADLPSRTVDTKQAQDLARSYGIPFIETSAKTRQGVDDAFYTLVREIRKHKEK

Row | SMILES | Coupled exchange IC50 (5 min; μM) [µM]
1 | C=CC(=O)N1[C@H](C)CN(c2c(C#N)c(=O)n(-c3c(C)ccnc3C(C)C)c3nc(-c4ccccc4F)c(Cl)cc23)C[C@@H]1C (single isomer, unassigned) [Example 7.6] | 0.32
2 | C=CC(=O)N1CCN(c2c(C#N)c(=O)n(-c3c(C)ccnc3C(C)C)c3nc(-c4ccccc4F)c(Cl)cc23)C[C@H]1C (single isomer, unassigned) [Example 6.6] | 0.92
3 | C=CC(=O)N1C[C@H](C)N(c2c(C#N)c(=O)n(-c3c(C)ccnc3C(C)C)c3nc(-c4ccccc4F)c(Cl)cc23)C[C@H]1C (single isomer, unassigned) [Example 7.4] | 17.6
4 | C=CC(=O)N1CCN(c2c(C#N)c(=O)n(-c3c(C(C)C)ccnc3C(C)C)c3nc(Cl)c(F)cc23)CC1 [Example 9, 4-(4-Acryloylpiperazin-1-yl)-7-chloro-1-(2,4-diisopropylpyridin-3-yl)-6-fluoro-2-oxo-1,2-dihydro-1,8-naphthyridine-3-carbonitrile] | 82.1
5 | C=CC(=O)N1CCN(c2c(C#N)c(=O)n(-c3c(CN(C)C)ccnc3C(C)C)c3nc(-c4ccccc4F)c(Cl)cc23)CC1 [Example 2.2, 4-(4-acryloylpiperazin-1-yl)-6-chloro-1-(4-((dimethylamino)methyl)-2-isopropylpyridin-3-yl)-7-(2-fluorophenyl)-2-oxo-1,2-dihydro-1,8-naphthyridine-3-carbonitrile] | 5.71
6 | C=CC(=O)N1CCN(c2c(C#N)c(=O)n(-c3c(C)ccnc3C(C)C)c3nc(-c4ccccc4F)c(Cl)cc23)CC1 [Example 6.4, 4-(4-acryloylpiperazin-1-yl)-6-chloro-7-(2-fluorophenyl)-1-(2-isopropyl-4-methylpyridin-3-yl)-2-oxo-1,2-dihydro-1,8-naphthyridine-3-carbonitrile] | 0.73
7 | C=CC(=O)N1CCN(c2c(C#N)c(=O)n(-c3c(C)ccnc3C(C)C)c3nc(-c4ccccc4C)c(Cl)cc23)CC1 (single isomer, unassigned) [Example 11, 4-(4-Acryloylpiperazin-1-yl)-6-chloro-1-(2-isopropyl-4-methylpyridin-3-yl)-2-oxo-7-(o-tolyl)-1,2-dihydro-1,8-naphthyridine-3-carbonitrile] | 0.71
8 | C=CC(=O)N1CCN(c2c(C#N)c(=O)n(-c3c(C)ccnc3C(C)C)c3nc(-c4ccccc4F)c(Cl)cc23)C[C@@H]1C [Example 6.1, (S)-4-(4-acryloyl-3-methylpiperazin-1-yl)-6-chloro-7-(2-fluorophenyl)-1-(2-isopropyl-4-methylpyridin-3-yl)-2-oxo-1,2-dihydro-1,8-naphthyridine-3-carbonitrile] | 1.57
9 | C=CC(=O)N1CCN(c2c(C#N)c(=O)n(-c3c(CN(C)C)ccnc3C(C)C)c3nc(-c4ccccc4F)c(Cl)cc23)CC1 [Example 2.1, 4-(4-acryloylpiperazin-1-yl)-6-chloro-1-(4-((dimethylamino)methyl)-2-isopropylpyridin-3-yl)-7-(2-fluorophenyl)-2-oxo-1,2-dihydro-1,8-naphthyridine-3-carbonitrile] | 0.18
10 | C=CC(=O)N1CCN(c2c(C#N)c(=O)n(-c3c(C(C)C)ncnc3C(C)C)c3nc(-c4ccccc4CN(C)C)c(Cl)cc23)CC1 [Example 1, 4-(4-Acryloylpiperazin-1-yl)-6-chloro-1-(4,6-diisopropylpyrimidin-5-yl)-7-(2-((dimethylamino)methyl)phenyl)-2-oxo-1,2-dihydro-1,8-naphthyridine-3-carbonitrile] | 4.13
11 | C=CC(=O)N1CCN(c2c(C#N)c(=O)n(-c3c(CN(C)C)ccnc3C(C)C)c3nc(-c4ccccc4F)c(Cl)cc23)CC1 [Example 2, 4-(4-Acryloylpiperazin-1-yl)-6-chloro-1-(4-((dimethylamino)methyl)-2-isopropylpyridin-3-yl)-7-(2-fluorophenyl)-2-oxo-1,2-dihydro-1,8-naphthyridine-3-carbonitrile] | 0.061
12 | C=CC(=O)N1C[C@H](C)N(c2c(C#N)c(=O)n(-c3c(C)ccnc3C(C)C)c3nc(-c4ccccc4F)c(Cl)cc23)C[C@H]1C (single isomer, unassigned) [Example 7.5] | 2.27
13 | C=CC(=O)N1CCN(c2c(C#N)c(=O)n(-c3c(C(C)C)ccnc3C(C)C)c3nc(-c4ccccc4C)c(F)cc23)CC1 [Example 10, 4-(4-Acryloylpiperazin-1-yl)-1-(2,4-diisopropylpyridin-3-yl)-6-fluoro-2-oxo-7-(o-tolyl)-1,2-dihydro-1,8-naphthyridine-3-carbonitrile] | 0.94

The next lines start with the values.

Row | Coupled exchange IC50 (5 min; μM) [µM] | SMILES
14 | 1.96 | C=CC(=O)N1CCN(c2c(C#N)c(=O)n(-c3c(C)ccnc3C(C)C)c3nc(-c4ccccc4C(C)C)c(Cl)cc23)CC1 (single isomer, unassigned) [Example 11.2, 4-(4-acryloylpiperazin-1-yl)-6-chloro-1-(2-isopropyl-4-methylpyridin-3-yl)-7-(2-isopropylphenyl)-2-oxo-1,2-dihydro-1,8-naphthyridine-3-carbonitrile]
15 | 0.44 | C=CC(=O)N1CCN(c2c(C#N)c(=O)n(-c3c(C(C)C)ccnc3C(C)C)c3nc(-c4ccccc4F)c(F)cc23)CC1 [Example 10.4, 4-(4-acryloylpiperazin-1-yl)-1-(2,4-diisopropylpyridin-3-yl)-6-fluoro-7-(2-fluorophenyl)-2-oxo-1,2-dihydro-1,8-naphthyridine-3-carbonitrile]
16 | 36 | C=CC(=O)N1CCN(c2c(C#N)c(=O)n(-c3c(C)ccnc3C(C)C)c3nc(Cl)c(Cl)cc23)CC1 [Example 9.2, 4-(4-acryloylpiperazin-1-yl)-6,7-dichloro-1-(2-isopropyl-4-methylpyridin-3-yl)-2-oxo-1,2-dihydro-1,8-naphthyridine-3-carbonitrile]
17 | 0.65 | C=CC(=O)N1CCN(c2c(C#N)c(=O)n(-c3c(C(C)C)ccnc3C(C)C)c3nc(-c4ccccc4F)c(F)cc23)CC1 [Example 10.1, 4-(4-acryloylpiperazin-1-yl)-1-(2,4-diisopropylpyridin-3-yl)-6-fluoro-7-(2-fluorophenyl)-2-oxo-1,2-dihydro-1,8-naphthyridine-3-carbonitrile]
18 | 0.42 | C=CC(=O)N1CCN(c2c(C#N)c(=O)n(-c3c(N(C)C)ccnc3C(C)C)c3nc(-c4ccccc4F)c(Cl)cc23)CC1 (single isomer, unassigned) [Example 8.3, 4-(4-acryloylpiperazin-1-yl)-6-chloro-1-(4-(dimethylamino)-2-isopropylpyridin-3-yl)-7-(2-fluorophenyl)-2-oxo-1,2-dihydro-1,8-naphthyridine-3-carbonitrile]
19 | 0.36 | C=CC(=O)N1CCN(c2c(C#N)c(=O)n(-c3c(C(C)C)ccnc3C(C)C)c3nc(-c4ccccc4F)c(F)cc23)CC1 [Example 10.5, 4-(4-acryloylpiperazin-1-yl)-1-(2,4-diisopropylpyridin-3-yl)-6-fluoro-7-(2-fluorophenyl)-2-oxo-1,2-dihydro-1,8-naphthyridine-3-carbonitrile]
20 | 25.1 | C=CC(=O)N1CCN(c2c(C#N)c(=O)n(-c3c(C(C)C)ncnc3C(C)C)c3nc(Cl)c(Cl)cc23)CC1 [Example 9.1, 4-(4-acryloylpiperazin-1-yl)-6,7-dichloro-1-(4,6-diisopropylpyrimidin-5-yl)-2-oxo-1,2-dihydro-1,8-naphthyridine-3-carbonitrile]
21 | 3.26 | C=CC(=O)N1CCN(c2c(C#N)c(=O)n(-c3c(N(C)C)ccnc3C(C)C)c3nc(-c4ccccc4F)c(Cl)cc23)CC1 (single isomer, unassigned) [Example 8.5, 4-(4-acryloylpiperazin-1-yl)-6-chloro-1-(4-(dimethylamino)-2-isopropylpyridin-3-yl)-7-(2-fluorophenyl)-2-oxo-1,2-dihydro-1,8-naphthyridine-3-carbonitrile]
22 | 0.45 | C=CC(=O)N1CCN(c2c(C#N)c(=O)n(-c3c(C(C)C)ccnc3C(C)C)c3nc(-c4ccccc4C)c(F)cc23)CC1 [Example 10.2, 4-(4-acryloylpiperazin-1-yl)-1-(2,4-diisopropylpyridin-3-yl)-6-fluoro-2-oxo-7-(o-tolyl)-1,2-dihydro-1,8-naphthyridine-3-carbonitrile]
23 | 0.83 | C=CC(=O)N1CCN(c2c(C#N)c(=O)n(-c3c(C(C)C)ccnc3C(C)C)c3nc(-c4ccccc4C)c(F)cc23)CC1 [Example 10.3, 4-(4-acryloylpiperazin-1-yl)-1-(2,4-diisopropylpyridin-3-yl)-6-fluoro-2-oxo-7-(o-tolyl)-1,2-dihydro-1,8-naphthyridine-3-carbonitrile]
24 | 1.55 | C=CC(=O)N1CCN(c2c(C#N)c(=O)n(-c3c(C(C)C)ccnc3N(C)C)c3nc(-c4ccccc4F)c(Cl)cc23)CC1 (single isomer, unassigned) [Example 8.7, 4-(4-acryloylpiperazin-1-yl)-6-chloro-1-(2-(dimethylamino)-4-isopropylpyridin-3-yl)-7-(2-fluorophenyl)-2-oxo-1,2-dihydro-1,8-naphthyridine-3-carbonitrile]
